Some test systems named below: OVCAR-8; SK-MEL-28; SF-268; HT-29; UACC-62; OVCAR-3; BT-549; HCC 2998; RXF 393; MCF7; M14; COLO 205; ACHN; SF-539; OVCAR-4; UACC-257; SNB-19; HOP-62; Malme-3M; NCI-H522.
Holding throughout (assay): growth of human tumour cells (NCI), 48 h

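How tested: cells in 96-well plates exposed to compound for 48 hours at five concentrations. The concentration for 50% growth inhibition is given as GI50.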 Activity calls are given as the source filed them. No stated cut-off is given here; in the data, active = GI50 up to about 1.1 µM and inactive = higher. A value given as a limit tells only on which side of the number the result lay.

As to `O=C(CCSC(CC(=O)c1ccc(Cl)cc1)c1ccc(Cl)cc1)Nc1ccc(Cl)cc1` (centres undefined), the GI50 was 14.9 µM (inactive) with OVCAR-8; 15.4 µM (inactive) in the assay on SK-MEL-28; 15.2 µM (inactive) in the assay with SF-268; 9.23 µM (inactive) with HT-29; 10.2 µM (inactive) with UACC-62; 14.1 µM (inactive) in the assay on OVCAR-3. Also, the GI50 was 13.5 µM (inactive) in the assay with BT-549; 14 µM (inactive) in the assay with HCC 2998; 14.9 µM (inactive) in the assay with RXF 393; 3.72 µM (inactive) in the assay on MCF7; 14.4 µM (inactive) in the assay on M14; 18.6 µM (inactive) in the assay on COLO 205. For the same compound, the GI50 is 14.4 µM (inactive) in the assay on ACHN; 18.4 µM (inactive) with SF-539; 14.7 µM (inactive) in the assay with OVCAR-4; 15.7 µM (inactive) in the assay on UACC-257; 13.7 µM (inactive) in the assay on SNB-19; 13.3 µM (inactive) in the assay with HOP-62. Also, the GI50 with Malme-3M is 16.9 µM (inactive); in the assay on NCI-H522, 14.5 µM (inactive).
Consider `COc1cc(OCc2ccc3nc(-c4ccccc4)c(N)nc3c2)cc(OC)c1OC`, for which the GI50 in the assay with OVCAR-8 is 27.8 µM (inactive); in the assay on SK-MEL-28 it was 19.3 µM (inactive); with SF-268, 34.8 µM (inactive); with UACC-62, 13.4 µM (inactive); in the assay with OVCAR-3, 16.4 µM (inactive); with BT-549 it was 16.1 µM (inactive). Further, the GI50 with HCC 2998 is 35 µM (inactive); in the assay with RXF 393 it was 23.1 µM (inactive); in the assay on MCF7 it was 22 µM (inactive); in the assay with M14, 15.8 µM (inactive); in the assay with COLO 205 it was 16.5 µM (inactive); in the assay with ACHN, 20.8 µM (inactive). The GI50 is 20.7 µM (inactive) with SF-539; 13.8 µM (inactive) in the assay with OVCAR-4; 25 µM (inactive) with UACC-257; 24.2 µM (inactive) in the assay with SNB-19; 13.4 µM (inactive) with Malme-3M; 13.6 µM (inactive) with NCI-H522.
Take `O=C(/C=C/c1ccc(OCC(=O)N2CCN(c3ccccc3)CC2)cc1)c1ccc(Cl)cc1`: the GI50 in the assay on OVCAR-8 was 45.9 µM (inactive); in the assay with SK-MEL-28 it was > 100 µM (inactive); in the assay on SF-268 it was 26.2 µM (inactive); in the assay on HT-29, > 100 µM (inactive); in the assay with UACC-62, 61.8 µM (inactive); in the assay on OVCAR-3 it was > 92 µM (inactive). For the same compound, the GI50 was 43.4 µM (inactive) in the assay on BT-549; > 100 µM (inactive) in the assay with HCC 2998; 21.9 µM (inactive) in the assay with RXF 393; > 100 µM (inactive) in the assay with MCF7; 84.7 µM (inactive) with M14; > 100 µM (inactive) with COLO 205. For the same compound, the GI50 in the assay on ACHN is 22.4 µM (inactive); in the assay with SF-539 it was 19 µM (inactive); with OVCAR-4 it was 32.6 µM (inactive); with UACC-257, > 72.4 µM (inactive); with SNB-19, 18.6 µM (inactive); in the assay with HOP-62, 21.7 µM (inactive). The GI50 with Malme-3M was 57.3 µM (inactive); in the assay with NCI-H522, 49.3 µM (inactive).
`Oc1ccc(-c2cc(-c3cc(-c4ccc(O)cc4)no3)on2)cc1`: the GI50 was > 100 µM (inactive) with OVCAR-8; > 100 µM (inactive) in the assay with SK-MEL-28; 41.2 µM (inactive) with SF-268; > 100 µM (inactive) in the assay with HT-29; 1.16 µM (inactive) in the assay on UACC-62; > 100 µM (inactive) in the assay on OVCAR-3. The GI50 in the assay on BT-549 was 17.8 µM (inactive); with HCC 2998, > 63.4 µM (inactive); in the assay with RXF 393, > 100 µM (inactive); in the assay on MCF7 it was 34.2 µM (inactive); in the assay with M14, > 32.4 µM (inactive); in the assay on COLO 205, > 100 µM (inactive). Further, the GI50 in the assay with ACHN is 2.81 µM (inactive); in the assay with SF-539, 4.13 µM (inactive); in the assay with OVCAR-4, > 100 µM (inactive); in the assay on UACC-257, 7.64 µM (inactive); in the assay on SNB-19, > 100 µM (inactive); with HOP-62, > 50.9 µM (inactive). Also, the GI50 in the assay with Malme-3M is 46.1 µM (inactive); with NCI-H522 it was 19.7 µM (inactive).
For the compound `CCN(CC)/[N+]([O-])=N/OCOC`, the GI50 in the assay on OVCAR-8, in the assay with SK-MEL-28, in the assay on SF-268, in the assay on HT-29, in the assay with UACC-62 and in the assay with OVCAR-3 was > 100 µM (inactive) each time. In addition, the GI50 with BT-549, in the assay on HCC 2998, with RXF 393, in the assay on MCF7, in the assay with M14 and with COLO 205 was > 100 µM (inactive) in each case. The GI50 with ACHN, in the assay on SF-539, in the assay with OVCAR-4, in the assay with UACC-257, in the assay with SNB-19 and in the assay on HOP-62 was > 100 µM (inactive) in each case. The GI50 with Malme-3M and in the assay on NCI-H522 was > 100 µM (inactive) each time.
As for `CN(C)c1ccc(/N=N\c2cccc3ncccc23)cc1`, the GI50 is > 100 µM (inactive) with OVCAR-8; > 100 µM (inactive) in the assay on SK-MEL-28; > 94 µM (inactive) with SF-268; 39 µM (inactive) with HT-29; 97.5 µM (inactive) with UACC-62; 22.9 µM (inactive) in the assay on OVCAR-3. In addition, the GI50 was 65.5 µM (inactive) with BT-549; 0.302 µM (active) with HCC 2998; > 100 µM (inactive) with RXF 393; 0.063 µM (active) in the assay with MCF7; 61.7 µM (inactive) with M14; 64 µM (inactive) with COLO 205. The GI50 with ACHN was 35.6 µM (inactive); in the assay with SF-539 it was > 100 µM (inactive); in the assay on OVCAR-4, > 100 µM (inactive); in the assay on UACC-257, > 100 µM (inactive); with SNB-19, > 58.1 µM (inactive); in the assay with HOP-62, 93.5 µM (inactive). The results for the GI50 in the assay on Malme-3M and in the assay on NCI-H522 were > 90.8 µM (inactive) and 20.8 µM (inactive), respectively.
In the case of `CCN1C(=O)CS/C1=N\NC(=O)CSc1nc2ccccc2c(=O)n1CC`, the GI50 in the assay on OVCAR-8, in the assay on SK-MEL-28, in the assay with SF-268, with UACC-62, in the assay with OVCAR-3 and in the assay on BT-549 was > 100 µM (inactive) in each case. The GI50 is > 100 µM (inactive) with HCC 2998; 65.9 µM (inactive) with RXF 393; > 100 µM (inactive) with MCF7; > 100 µM (inactive) with M14; > 100 µM (inactive) in the assay on COLO 205; > 100 µM (inactive) in the assay on ACHN. Moreover, the GI50 in the assay on SF-539, in the assay with OVCAR-4, in the assay with UACC-257, in the assay on SNB-19, in the assay with HOP-62 and in the assay on Malme-3M was > 100 µM (inactive) each time. Further, the GI50 with NCI-H522 is > 100 µM (inactive).
For the compound `Cc1ccc(N/C(Sc2ccccc2)=C(/C(Cl)=C(Cl)Cl)[N+](=O)[O-])c(C)c1`, the GI50 with OVCAR-8 was 34.5 µM (inactive); with SK-MEL-28, 18.5 µM (inactive); with SF-268, 14 µM (inactive); in the assay on HT-29, 18.3 µM (inactive); in the assay with UACC-62 it was 30.6 µM (inactive); in the assay with BT-549, 15.5 µM (inactive). The GI50 in the assay on HCC 2998 is 17.7 µM (inactive); in the assay on MCF7, 14.4 µM (inactive); in the assay on M14 it was 21.5 µM (inactive); in the assay with COLO 205, 20.9 µM (inactive); in the assay on ACHN, 32.8 µM (inactive); in the assay on SF-539, 21.7 µM (inactive). Further, the GI50 is 23.7 µM (inactive) in the assay on OVCAR-4; 18.2 µM (inactive) with UACC-257; 22.3 µM (inactive) with SNB-19; 23.8 µM (inactive) in the assay on HOP-62; 17.5 µM (inactive) in the assay on Malme-3M; 17.8 µM (inactive) with NCI-H522.
For `O=C(/C=C\Nc1ccccc1O)C(Cl)(Cl)Cl`, the GI50 is 35.9 µM (inactive) in the assay with OVCAR-8; 43.1 µM (inactive) in the assay on SK-MEL-28; > 100 µM (inactive) in the assay with SF-268; 36.1 µM (inactive) in the assay on HT-29; < 0.01 µM (active) with UACC-62; 17.8 µM (inactive) in the assay on OVCAR-3. Moreover, the GI50 in the assay with BT-549 is 52.2 µM (inactive); with HCC 2998, 26.3 µM (inactive); in the assay with RXF 393 it was 33.5 µM (inactive); in the assay with MCF7 it was 20.8 µM (inactive); in the assay on M14, 38.9 µM (inactive); in the assay with COLO 205, 48.3 µM (inactive). Besides, the GI50 in the assay with ACHN was 26.9 µM (inactive); in the assay on SF-539, 56.2 µM (inactive); in the assay on OVCAR-4, 39.1 µM (inactive); in the assay with UACC-257, 33.5 µM (inactive); in the assay with SNB-19 it was 76.2 µM (inactive); in the assay on HOP-62 it was 24.1 µM (inactive). Besides, the GI50 was 82 µM (inactive) in the assay on Malme-3M and 22.6 µM (inactive) with NCI-H522.
`O=c1ccn([C@@H]2C[C@@H]2CO)c(=O)[nH]1`: the GI50 in the assay on OVCAR-8, in the assay on SK-MEL-28, with SF-268, in the assay on HT-29, in the assay with UACC-62 and in the assay on BT-549 was > 100 µM (inactive) each time. In addition, the GI50 with HCC 2998, in the assay on RXF 393, in the assay with MCF7, in the assay on M14, with COLO 205 and with ACHN was > 100 µM (inactive) throughout. In addition, the GI50 in the assay on SF-539, in the assay with OVCAR-4, in the assay with UACC-257, in the assay on SNB-19, in the assay with HOP-62 and in the assay on Malme-3M was > 100 µM (inactive) each time. For the same compound, the GI50 in the assay with NCI-H522 is > 100 µM (inactive).

The values are drawn from ChEMBL document CHEMBL1201862, “PubChem BioAssay data set” (2004).
